Values quoted from earlier work as cited in patent US20030134846A1, “Treatment of trypanosoma brucei with farnesyl protein transferase inhibitors” (Schering Corporation, priority 2001, published 2003).

Conditions: patients treated for second stage infection; can lead to death

SMILES: Nc1nc(N)nc(Nc2ccc([As]3SCC(CO)S3)cc2)n1 (stereo not shown) [melarsoprol]
- reactive encephalopathy, occurrence in patients: 5-10%
